A short description of data set [1]: Water solubility (Table 1). Type of data set: physicochemical.
The subject of a further data set is Candida albicans. Put plainly: Systemic candidiasis model in rats, ED50. Type of data set: in vivo. The note with it: 336 h. An excerpt: (§1) Male Fisher rats, strain F344/DuCrj, were employed for experimental infection models such as systemic candidiasis, systemic aspergillosis and pulmonary aspergillosis model. Immunocompetent 4 weeks old rats were used for systemic candidiasis or systemic aspergillosis which occurred her infection with Candida albicans conidia of 5x10^6/rat or with Aspergillus fumigatus conidia of 6x10^5/rat via tail vein. Otherwise for pulmonary aspergillosis model, rats had been immunosuppressed with cortisone acetate treatments prior to infection with 2x10^5/rat intratrachially. Treatments were given twice on the first day and once daily on following 4 days both for systemic and pulmonary aspergillosis (Ib.i.+4q.d.), for systemic candidiasis rats were treated at 0, 4, 24, and 48 h after infection (Ib.i.d.+2q.d.).

Data set [2] can be described thus: Conversion of the azolium compounds to ketoconazole / itraconazole on incubation in human plasma. Format: in vitro ADME. The note with it: 10µg/ml, 37°C; for metabolised at 5 min / remaining at 5 min: incubation time 5 min. How it is done: The compounds of formula I were incubated with human plasma at a concentration of 10µg/ml at 37°C for up to 120 min.
Data set [3] has as its system Aspergillus fumigatus. Put plainly: Pulmonary aspergillosis model in immunosuppressed rats, ED50. The note with it: 336 h. Format: in vivo.
Text: as §1

Data set [4] concerns Aspergillus fumigatus. Put plainly: Systemic aspergillosis model in rats, ED50. The note with it: 336 h. Type of data set: in vivo.
Text: as §1

Setting [5] is: mcilvaine buffer, pH 8.02, aqueous buffer.
[6] abbreviates: ketoconazole formed, read-out: Observed (%) KCZ.
Setting [7] is: remaining parent compound, read-out: Observed (%) Comp. I.
[8] abbreviates: iv, read-out: Effective dose 50% (ED50) Systemic candidiasis i.v., male Fisher rats F344/DuCrj, immunocompetent, i.v., treated at 0, 4, 24 and 48 h after infection, determined on day 14 after infection.
The mark [9] stands for this setting: po, read-out: Effective dose 50% (ED50) Systemic candidiasis p.o., male Fisher rats F344/DuCrj, immunocompetent, p.o., treated at 0, 4, 24 and 48 h after infection, determined on day 14 after infection.
Where [10] appears, read: iv, read-out: Effective dose 50% (ED50) Pulmonay aspergillosis i.v., male Fisher rats F344/DuCrj immunosuppressed with cortisone acetate, i.v., twice on first day, once daily on following 4 days, determined on day 14 after infection.
Setting [11] is: po, read-out: Effective dose 50% (ED50) Pulmonay aspergillosis p.o., male Fisher rats F344/DuCrj immunosuppressed with cortisone acetate, p.o., twice on first day, once daily on following 4 days, determined on day 14 after infection.
Setting [12] is: iv, read-out: Effective dose 50% (ED50) Systemic aspergillosis i.v., male Fisher rats F344/DuCrj, immunocompetent, i.v., twice on first day, once daily on following 4 days, determined on day 14 after infection.
The mark [13] stands for this setting: po, read-out: Effective dose 50% (ED50) Systemic aspergillosis p.o., male Fisher rats F344/DuCrj, immunocompetent, p.o., twice on first day, once daily on following 4 days, determined on day 14 after infection.
The mark [14] stands for this setting: solvent a = distilled water, read-out: solubility.

The structures appear in SMILES notation. Where a name gives a salt, the structure may show the parent alone. Read-outs that look alike come from different tables or passages of the source.

The term solubility denotes how much of the substance goes into solution per volume. `CCC(C)n1ncn(-c2ccc(N3CCN(c4ccc(OCC5COC(Cn6c[n+](Cc7cc(C)c(OC(=O)c8ccccc8)c(C)c7)cn6)(c6ccc(Cl)cc6Cl)O5)cc4)CC3)cc2)c1=O.[Br-]` (centres unmarked) [Example 3, 4-(4-Benzoyloxy-3,5-dimethylbenzyl)-1-[4-(4-{4-[4-(1-(2-butyl)-5-oxo-1,5-dihydro-[1,2,4]triazol-4-yl)phenyl]piperazin-1-yl}phenoxymethyl)-2-(2,4-dichlorophenyl)-[1,3]dioxolan-2-ylmethyl]-1H-[1,2,4]triazol-4-ium bromide] returned a solubility in data set [1] (setting [5]) of 400 µg/mL.

In the case of `CCCCCC(=O)Oc1c(C)cc(C[n+]2cnn(CC3(c4ccc(Cl)cc4Cl)OCC(COc4ccc(N5CCN(c6ccc(-n7cnn(C(C)CC)c7=O)cc6)CC5)cc4)O3)c2)cc1C` (racemic) [Example 13, dl-1-[4-(4-{4-[4-(1-sec-butyl-5-oxo-1,5-dihydro-[1,2,4]triazol-4-yl)-phenyl]-piperazin-1-yl}-phenoxymethyl)-2-(2,4-dichloro-phenyl)-[1,3]dioxolan-2-ylmethyl]-4-(4-hexanoyloxy-3,5-dimethyl-benzyl)-1H-[1,2,4]triazol-4-ium methanesulfonate], the solubility in data set [1] (mcilvaine buffer, pH 8.02, aqueous buffer, solvent b = Mellvaine buffer(pH8.02), read-out: solubility) turned out to be 500 µg/mL.

`CO[C@H]1[C@@H](Cn2c[n+](Cc3cc(C)c(OC(C)=O)c(C)c3)cn2)[C@H](CCc2ccc(C)cc2)CCC1(C)C.[Br-]` [Example 8, 4-(4-acetoxy-3,5-dimethyl-benzyl)-1-[(1R,2S,6R)-2-methoxy-3,3-dimethyl-6-(2-p-tolyl-ethyl)-cyclohexylmethyl]-1H-[1,2,4]triazol-4-ium bromide] came in with a solubility in data set [1] (distilled water, water) of 14000 µg/mL.

Turning to `OC(Cn1cncn1)(Cn1cncn1)c1ccc(F)cc1F` [Fluconazole, reference compound], in the data set with Candida albicans (po, read-out: Effective dose 50% (ED50) Systemic candidiasis p.o.), the ED50 is over 2.9 µmol/kg.

For `CC(=O)Oc1ccc(C[n+]2ccn(C[C@]3(c4ccc(Cl)cc4Cl)OC[C@H](COc4ccc(N5CCN(C(C)=O)CC5)cc4)O3)c2)cc1` (relative stereo) [Example 9, 1-(4-Acetoxybenzyl)-3-[(2R*,4S*)-4-[4-(4-acetylpiperazin-1-yl)phenoxymethyl]-2-(2,4-dichlorophenyl)-[1,3]dioxolan-2-ylmethyl]-3H-imidazol-1-ium bromide], in data set [2] (setting [6]), the metabolised at 5 min amounted to 89%. Also, the remaining at 5 min in data set [2] (setting [7]) was under 5%.

Turning to `CC(=O)Oc1ccc(C[n+]2ccn(C[C@]3(c4ccc(Cl)cc4Cl)OC[C@H](COc4ccc(N5CCN(C(C)=O)CC5)cc4)O3)c2)cc1C` (relative stereo) [Example 11, 1-(4-Acetoxy-3-methyl-benzyl)-3-[(2R*,4S*)-4-[4-(4-acetyl-piperazin-1-yl)-phenoxymethyl]-2-(2,4-dichloro-phenyl)-[1,3]dioxolan-2-ylmethyl]-3H-imidazol-1-ium bromide], in data set [2] (setting [6]), the metabolised at 5 min turned out to be 100%. Moreover, the remaining at 5 min in data set [2] (setting [7]) is under 5%.

`CC(=O)N1CCN(c2ccc(OCC3COC(Cn4cc[n+](Cc5ccc(OC(=O)C(C)(C)C)cc5)c4)(c4ccc(Cl)cc4Cl)O3)cc2)CC1` (stereo not drawn) [Example 10, 3-[(2R*,4S*)-4-[4-(4-Acetylpiperazin-1-yl)phenoxymethyl]-2-(2,4-dichlorophenyl)-[1,3]dioxolan-2-ylmethyl]-1-[4-(2,2-dimethylpropionyloxy)benzyl]-3H-imidazol-1-ium bromides]: in data set [2] (ketoconazole formed, incubation time 10 min, read-out: Observed (%) KCZ), the metabolised at 10 min is 80%. Further, the remaining at 10 min in data set [2] (remaining parent compound, incubation time 10 min, read-out: Observed (%) Comp. I) is under 5%.

On to `Cc1cc(C[n+]2cnn(C[C@](O)(c3ccc(F)cc3F)[C@@H](C)c3nc(-c4ccc(C#N)cc4)cs3)c2)cc(C)c1OC(=O)[C@@H]1CCCN1` [Example 16, 1-[(2R,3R)-3-[4-(4-Cyanophenyl)-thiazol-2-yl]-2-(2,4-difluorophenyl)-2-hydroxybutyl]-4-[(S)-3,5-dimethyl-4-(pyrrolidine-2-carbonyloxy)-benzyl]-1H-[1,2,4]triazol-4-ium bromide trifluoroacetic acid salt], for which the ED50 is 3.5 µmol/kg in the data set on Candida albicans (setting [8]); under 2.1 µmol/kg with Candida albicans (setting [9]); 17 µmol/kg in the data set on Aspergillus fumigatus [3] (setting [10]); 18 µmol/kg with Aspergillus fumigatus [3] (setting [11]); over 35 µmol/kg in the data set on Aspergillus fumigatus [4] (setting [12]); over 55 µmol/kg with Aspergillus fumigatus [4] (setting [13]).

For `CC(=O)Oc1c(C)cc(C[n+]2ccn(CC3(c4ccc(Cl)cc4Cl)OCC(COc4ccc(N5CCN(C(C)=O)CC5)cc4)O3)c2)cc1C` (stereo not drawn) [Example 4, 1-(4-Acetoxy-3,5-dimethyl-benxyl)-3-[(2R*,4S*)-4-[4-(4-acetyl-piperazin-1-yl)-phenoxymethyl]-2-(2,4-dichloro-phenyl)-[1,3]dioxolan-2-ylmethyl]-3H-imidazol-1-ium bromide], the metabolised at 20 min in data set [2] (ketoconazole formed, incubation time 20 min, read-out: Observed (%) KCZ) is 74%. Moreover, the remaining at 20 min in data set [2] (remaining parent compound, incubation time 20 min, read-out: Observed (%) Comp. I) was determined as 19%.

With `CC(=O)N1CCN(c2ccc(OC[C@H]3CO[C@](Cn4cc[n+](Cc5cc(C)c(OC(=O)C(C)C)c(C)c5)c4)(c4ccc(Cl)cc4Cl)O3)cc2)CC1.[Br-]` (relative stereo) [Example 5, 3-[(2R*,4S*)-4-[4-(4-Acetyl-piperazin-1-yl)-phenoxymethyl]-2-(2,4-dichloro-phenyl)-[1,3]dioxolan-2-ylmethyl]-1-(4-isobutyryloxy-3,5-dimethyl-benzyl)-3H-imidazol-1-ium bromide], in data set [1] (distilled water, water), the solubility is over 1000 µg/mL.

`CC(=O)Oc1c(C)cc(C[n+]2ccn(CC(OCc3ccc(Cl)cc3Cl)c3ccc(Cl)cc3Cl)c2)cc1C` (racemic) [Example 7, dl-1-(4-Acetoxy-3,5-dimethyl-benzyl)-3-[2-(2,4-dichloro-benzyloxy)-2-(2,4-dichloro-phenyl)-ethyl]-3H-imidazol-1-ium bromide]: the solubility in data set [1] (setting [14]) was over 1000 µg/mL.

`CCC(C)n1ncn(-c2ccc(N3CCN(c4ccc(OCC5COC(Cn6cncn6)(c6ccc(Cl)cc6Cl)O5)cc4)CC3)cc2)c1=O` (centres unmarked) [Itraconazole, reference compound]: the ED50 with Aspergillus fumigatus [4] (po, read-out: Effective dose 50% (ED50) Systemic aspergillosis p.o.) worked out at 17 µmol/kg.

Regarding `CCC(C)n1ncn(-c2ccc(N3CCN(c4ccc(OCC5COC(Cn6c[n+](Cc7cc(C)c(OC(C)=O)c(C)c7)cn6)(c6ccc(Cl)cc6Cl)O5)cc4)CC3)cc2)c1=O` (centres unmarked) [Example 1], in data set [2] (itraconazole formed, incubation time 60 min, read-out: Observed (%) ICZ), the metabolised at 1 h was determined as 28%. The remaining at 1 h in data set [2] (remaining parent compound, incubation time 60 min, read-out: Observed (%) Comp. I) was determined as 47%.

On to `COc1cc(C[n+]2ccn(CC3(c4ccc(Cl)cc4Cl)OCC(COc4ccc(N5CCN(C(C)=O)CC5)cc4)O3)c2)ccc1OC(C)=O` (centres unmarked) [Example 12], for which, in data set [1] (setting [14]), the solubility was found to be 5000 µg/mL.

Turning to `CC(=O)Oc1c(Cl)cc(C[n+]2ccn(CC3(c4ccc(Cl)cc4Cl)OCC(COc4ccc(N5CCN(C(C)=O)CC5)cc4)O3)c2)cc1Cl` (stereo not drawn) [Example 6, 1-(4-Acetoxy-3,5-dichloro-benzyl)-3-[(2R*,4S*)-[4-[4-(4-acetyl-piperazin-1-yl)-phenoxymethyl]-2-(2,4-dichloro-phenyl)-[1,3]dioxolan-2-ylmethyl]-3H-imidazol-1-ium bromide], in data set [1] (setting [14]), the solubility came to 6500 µg/mL.

As to `CNCC(=O)Oc1c(C)cc(C[n+]2cnn(C[C@](O)(c3ccc(F)cc3F)[C@@H](C)c3nc(-c4ccc(C#N)cc4)cs3)c2)cc1C` [Example 23, 1-[(2R,3R)-3-[4-(4-Cyanophenyl)thiazol-2-yl]-2-(2,4-difluorophenyl)-2-hydroxybutyl]-4-[3,5-dimethyl-4-[(methylamino)acetoxy]benzyl]-1H-[1,2,4]triazol-4-ium bromide trifluoroacetic acid salt], the ED50 in the data set on Candida albicans (setting [8]) was found to be 4.6 µmol/kg; in the data set on Candida albicans (setting [9]), 4.7 µmol/kg; in the data set on Aspergillus fumigatus [3] (setting [10]), 8 µmol/kg; in the data set on Aspergillus fumigatus [3] (setting [11]), 17 µmol/kg; in the data set on Aspergillus fumigatus [4] (setting [12]) it was 17 µmol/kg; in the data set on Aspergillus fumigatus [4] (setting [13]) it was 19 µmol/kg.

On to `CCC(C)n1ncn(-c2ccc(N3CCN(c4ccc(OCC5COC(Cn6c[n+](Cc7cc(C)c(OC(=O)c8cccnc8)c(C)c7)cn6)(c6ccc(Cl)cc6Cl)O5)cc4)CC3)cc2)c1=O.[Br-]` (centres unmarked) [Example 2, 4-(4-(Pyridine-3-carbonyloxy)-3,5-dimethylbenzyl)-1-[4-(4-{4-(4-(1-(2-butyl)-5-oxo-1,5-dihydro-[1,2,4]triazol-4-yl)phenyl]piperazin-1-yl}phenoxymethyl)-2-(2,4-dichlorophenyl)-[1,3]dioxolan-2-ylmethyl]-1H-[1,2,4]triazol-4-ium bromide], for which, in data set [1] (setting [5]), the solubility came out at 400 µg/mL.

These data come from patent publication EP0829478A2, “N-Benzylimidazolium and N-benzyltriazolium derivatives, their preparation and their use as antifungal and antimycotic agents” (F. HOFFMANN-LA ROCHE AG, priority 1996, dated 1998).
